Where a name gives a salt, the structure may show the parent alone.
Tests used:
[1] = Phase 1 clinical study, incidence of GI TEAEs after Volixibat 75 mg in fed versus fasted state; assay type: in vivo, human; conditions: healthy participants
Method: FIG. 1 depicts study designs, drugs (MRX = maralixibat, VLX = volixibat), doses and at mealtime/fasted timelines for certain embodiments according to the disclosure. *Fasting was started ≥10-12 hours before MRX dosing. ^‡Patients were randomized 1:1 to two cohorts and received sequentially fasted then at mealtime dosing, or at mealtime then fasted dosing.
(§1) FIG. 2 is pie charts showing the proportion of healthy participants who experienced gastrointestinal (GI) treatment-emergent adverse events (AEs) following ASBTI administration at mealtime versus in the fasted state for each of the three studies.
(§2) AE data from 3 separate phase 1 clinical studies on MRX and VLX in healthy participants were compiled to assess the impact of ASBTI dosing vs mealtime on GI AEs (Table 1, FIG. 1). In each clinical study, the ASBTI was administered in both a fed and fasted state, and rates of GI AEs were compared. Separately, AE data from placebo (PBO)-controlled trials in patients with ALGS, where MRX was dosed 30 mins prior to a meal, allows a comparison of GI AE rates for MRX vs PBO.

[2] = Phase 1 clinical study, incidence of GI TEAEs after Maralixibat 30 mg in fed versus fasted state; assay type: in vivo, human; conditions: healthy participants
Method: as §1, with “studies. […] In each clinical study, the ASBTI was administered in both a fed and fasted state, and rates of GI AEs were compared.” for “studies.”

[3] = Placebo-controlled trials in patients with ALGS, MRX dosed 30 mins prior to a meal, GI AE rates; assay type: in vivo, human; conditions: PBO-controlled trials, dosed in the fasted state 30 mins prior to a meal (PBO 44.4%)
Method: as §2

[4] = tested on: fecal bile acid (fBA) excretion; assay: Effect of maralixibat on fecal bile acid (fBA) excretion in healthy dogs, dosing time relative to mealtime; assay type: in vivo; conditions: for increase in fBA excretion, change compared with pre-treatment value: day 7
Method: FIG. 4 is a bar graph of the effect of maralixibat (MRX) on fecal bile acid (fBA) in dogs: change in fBA excretion from pre-treatment to day 7. The PD impact of ASBTI dosing time to mealtime was investigated in healthy dogs (FIG. 3). […] P<0.01 versus pre-treatment, by one-tail paired t-test. Data are presented as ±SEM (n = 7-8). % = change compared with pre-treatment value. Groups were dosed at the indicated times. Fecal samples were taken 48 hours before treatment initiation and for the last 72 hours of the 7-day treatment period and analyzed for bile acid content.

[5] = Phase 1 clinical study, incidence of GI TEAEs after Maralixibat 10 mg in fed versus fasted state; assay type: in vivo, human; conditions: healthy participants
Method: as §1, with “studies. […] In each clinical study, the ASBTI was administered in both a fed and fasted state, and rates of GI AEs were compared.” for “studies.”

Structure (SMILES): CCCC[C@]1(CC)CS(=O)(=O)c2ccc(N(C)C)cc2[C@@H](c2cccc(NC(=O)N[C@@H]3O[C@H](COS(=O)(=O)O)[C@@H](O)[C@H](OCc4ccccc4)[C@H]3O)c2)[C@H]1O [Volixibat, (2R,3R,4S,5R,6R)-4-benzyloxy-6-{3-[3-((3S,4R,5R)-3-butyl-7-dimethylamino-3-ethyl-4-hydroxy-1,1-dioxo-2,3,4,5-tetrahydro-1H-benzo[b]thiepin-5-yl)-phenyl]-ureido}-3,5-dihydroxy-tetrahydro-pyran-2-ylmethyl) hydrogen sulfate]
- Incidence of GI TEAEs: Any GI TEAE, % of participants ([1]; Fasted (n=8)): 0 (0%)
- Incidence of GI TEAEs: Any GI TEAE, number of participants ([1]; Fasted (n=8)): 0 (0%)
- Incidence of GI TEAEs: Any GI TEAE, % of participants ([1]; Fed (n=8)): 75%
- Incidence of GI TEAEs: Any GI TEAE, number of participants ([1]; Fed (n=8)): 6
- Incidence of GI TEAEs: Diarrhea, % of participants ([1]; Fed (n=8)): 50%
- Incidence of GI TEAEs: Diarrhea, number of participants ([1]; Fed (n=8)): 4
- Incidence of GI TEAEs: Loose stools, % of participants ([1]; Fed (n=8)): 25%
- Incidence of GI TEAEs: Loose stools, number of participants ([1]; Fed (n=8)): 2

Structure (SMILES): CCCCC1(CCCC)CS(=O)(=O)c2ccc(N(C)C)cc2[C@@H](c2ccc(OCc3ccc(C[N+]45CCN(CC4)CC5)cc3)cc2)[C@H]1O [Maralixibat, maralixibat]
- Incidence of GI TEAEs: Abdominal pain, % of participants ([2]; Fasted (n=12)): 8%
- Incidence of GI TEAEs: Abdominal pain, number of participants ([2]; Fasted (n=12)): 1
- Incidence of GI TEAEs: Any GI TEAE, % of participants ([2]; Fasted (n=12)): 50%
- Incidence of GI TEAEs: Any GI TEAE, number of participants ([2]; Fasted (n=12)): 6
- Incidence of GI TEAEs: Diarrhea, % of participants ([2]; Fasted (n=12)): 50%
- Incidence of GI TEAEs: Diarrhea, number of participants ([2]; Fasted (n=12)): 6
- Incidence of GI TEAEs: Abdominal pain, % of participants ([2]; Fed (n=12)): 42%
- Incidence of GI TEAEs: Abdominal pain, number of participants ([2]; Fed (n=12)): 5
- Incidence of GI TEAEs: Anorectal discomfort, % of participants ([2]; Fed (n=12)): 8%
- Incidence of GI TEAEs: Anorectal discomfort, number of participants ([2]; Fed (n=12)): 1
- Incidence of GI TEAEs: Any GI TEAE, % of participants ([2]; Fed (n=12)): 100%
- Incidence of GI TEAEs: Any GI TEAE, number of participants ([2]; Fed (n=12)): 12
- Incidence of GI TEAEs: Diarrhea, % of participants ([2]; Fed (n=12)): 92%
- Incidence of GI TEAEs: Diarrhea, number of participants ([2]; Fed (n=12)): 11
- Incidence of GI TEAEs: Nausea, % of participants ([2]; Fed (n=12)): 25%
- Incidence of GI TEAEs: Nausea, number of participants ([2]; Fed (n=12)): 3
- diarrhea reported, frequency in patients [3]: 43.6%
- increase in fBA excretion, change compared with pre-treatment value ([4]; dosing 30 minutes prior to the meal): 231%
- increase in fBA excretion, change compared with pre-treatment value ([4]; dosing 4 hours after the meal): 229%
- fBA excretion vs pretreatment baseline ([4]; regardless of dosing time relative to the daily meal, p<0.01 by paired t-test): significantly increased fBA excretion
- Incidence of GI TEAEs: Any GI TEAE, % of participants ([5]; Fasted (n=6)): 0 (0%)
- Incidence of GI TEAEs: Any GI TEAE, number of participants ([5]; Fasted (n=6)): 0 (0%)
- Incidence of GI TEAEs: Any GI TEAE, % of participants ([5]; Fed (n=6)): 33%
- Incidence of GI TEAEs: Any GI TEAE, number of participants ([5]; Fed (n=6)): 2
- Incidence of GI TEAEs: Diarrhea, % of participants ([5]; Fed (n=6)): 17%
- Incidence of GI TEAEs: Diarrhea, number of participants ([5]; Fed (n=6)): 1
- Incidence of GI TEAEs: Nausea, % of participants ([5]; Fed (n=6)): 17%
- Incidence of GI TEAEs: Nausea, number of participants ([5]; Fed (n=6)): 1
